pIC50: −log10 of the molar value.
Experiments:
[1] = target: Gppcp-bound recombinant K-Ras4B G12C mutant protein (amino acids 1-169, C51S/C80L/C118S) (Homo sapiens, UniProt P01116, C118S/C51S/C80L/G12C); experiment: KRASG12C binding assay (LC-MS, compound binding rate); settings: test compound final concentration 0.5 μM, 25° C., 1 hour
Method in brief: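 Gppcp-bound K-Ras4B G12C (1-169; C51S/C80L/C118S), 50 nM in TBS with 0.1 mM TCEP, 0.25 mM MgCl2, 50 μM Gppcp, exposed to compound at 0.5 μM final for 1 h at 25 °C. Quenched with formic acid and analysed by intact-protein ESI LC-MS. Binding rate is the mono-adduct signal over total KRAS signal; graded A (≥80%) to E (<20%).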

MIA PaCa-2 cells = experiment: Growth inhibition activity on KRAS-G12C mutant cell line (MIA PaCa-2), CellTiter-Glo 3D; type: cell-based, human; settings: MIA PaCa-2, 3-day culture with compound
Method in brief: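 Cells in RPMI1640 with 10% FBS were seeded in U-bottom plates and cultured 1 day at 37 °C, 5% CO2, then exposed to compound (0.2% DMSO final) for 3 more days. Viability read by CellTiter-Glo 3D luminescence; IC50 from growth inhibition relative to untreated wells.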

[2] = target: T1, interaction between recombinant K-Ras4B G12C mutant protein and cRAF RAS-binding domain (cRAF-RBD) (Homo sapiens, UniProt P01116, G12C); experiment: Inhibitory activity on interaction between KRAS G12C and cRAF (Alpha technology); type: biochemical; settings: GMPPNP-bound KRAS G12C incubated with compound at 25° C. for 1 hour, then cRAF-RBD; Alpha signal
T1 construct: made in house; host or cells: E. coli
Method in brief: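 GMPPNP-loaded His-tagged KRAS G12C (aa 1-169, E. coli) preincubated with compound 1 h at 25° C in Tris pH 7.5, 100 mM NaCl, 1 mM MgCl2, TCEP, 0.1% Tween 20; cRAF-RBD (aa 50-132) added, 1.5 h RT, Alpha signal read. DMSO = 0%, GDP-bound KRAS = 100% inhibition; IC50 from dose titration fit.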

| pIC50 (MIA PaCa-2 cells; Homo sapiens, MIA PaCa-2, 72 h) | pIC50 [2] | pIC50 (MIA PaCa-2 cells) | SMILES | binding rate [1] |
| --- | --- | --- | --- | --- |
|  | 6.80 | 6.57 | CO[C@H]1CC[C@H](NC/C=C/C(=O)Nc2c(F)cc(C(=O)c3ccc4c(-c5c(C)cc6c(ncn6C)c5Cl)cccn34)cc2F)CC1 (single isomer, unassigned) [Example 12-2, (E)-N-(4-(8-(4-chloro-1,6-dimethyl-1H-benzo[d]imidazol-5-yl)indolizine-3-carbonyl)-2,6-difluorophenyl)-4-(((1r,4r)-4-methoxycyclohexyl)amino)but-2-enamide] | B (a binding rate of 60% or more and less than 80% is rated “B”) |
|  | 7.68 | 7.85 | CO[C@H]1CC[C@H](NC/C=C/C(=O)Nc2c(F)cc(C(=O)c3ccc4c(-c5c(C(F)(F)F)cc6c(nc(C)n6C)c5Cl)cccn34)cc2F)CC1 (single isomer, unassigned) [Example 32-1, (E)-N-(4-(8-(4-chloro-1,2-dimethyl-6-(trifluoromethyl)-1H-benzo[d]imidazol-5-yl)indolizine-3-carbonyl)-2,6-difluorophenyl)-4-(((1r,4r)-4-methoxycyclohexyl)amino)but-2-enamide] | A (A binding rate of 80% or more is rated “A”) |
| 7.64 | 7.66 |  | COc1cc2c(nc(C)n2C)c(F)c1-c1cccn2c(C(=O)c3cc(F)c(NC(=O)/C=C/CN[C@H]4CC[C@H](OC)CC4)c(F)c3)ccc12 [Example 44] | A (A binding rate of 80% or more is rated “A”) |
| 6.62 | 7.06 |  | CO[C@H]1CC[C@H](NC/C=C/C(=O)Nc2c(F)cc(C(=O)c3ccc4c(-c5c(C#N)cc6c(nc(C)n6C)c5Cl)cccn34)cc2F)CC1 [Example 37, (E)-N-(4-(8-(4-chloro-6-cyano-1,2-dimethyl-1H-benzo[d]imidazol-5-yl)indolizine-3-carbonyl)-2,6-difluorophenyl)-4-(((1r,4r)-4-methoxycyclohexyl)amino)but-2-enamide] | A (A binding rate of 80% or more is rated “A”) |
|  | 7.80 | 7.12 | CO[C@H](C)c1nc2c(Cl)c(-c3cccn4c(C(=O)c5cc(F)c(NC(=O)/C=C/CN[C@H]6CC[C@H](OC)CC6)c(F)c5)ccc34)c(C)cc2n1C (single isomer, unassigned) [Example 47] | A (A binding rate of 80% or more is rated “A”) |
|  | 6.85 | 6.80 | CO[C@H]1CC[C@H](NC/C=C/C(=O)Nc2c(F)cc(C(=O)c3ccc4c(-c5c(C)cc6c(nc(C)n6C)c5Cl)cccn34)cc2F)CC1 (single isomer, unassigned) [Example 19-2, (E)-N-(4-(8-(4-chloro-1,2,6-trimethyl-1H-benzo[d]imidazol-5-yl)indolizine-3-carbonyl)-2,6-difluorophenyl)-4-(((1r,4r)-4-methoxycyclohexyl)amino)but-2-enamide] | A (A binding rate of 80% or more is rated “A”) |
|  | 7.70 | 7.33 | CO[C@H]1CC[C@H](NC/C=C/C(=O)Nc2c(F)cc(C(=O)c3ccc4c(-c5c(C)cc6c(nc(C)n6C)c5Cl)cccn34)cc2F)CC1 (single isomer, unassigned) [Example 19-1, (E)-N-(4-(8-(4-chloro-1,2,6-trimethyl-1H-benzo[d]imidazol-5-yl)indolizine-3-carbonyl)-2,6-difluorophenyl)-4-(((1r,4r)-4-methoxycyclohexyl)amino)but-2-enamide] | A (A binding rate of 80% or more is rated “A”) |

The next lines start with the compound.

| SMILES | pIC50 (MIA PaCa-2 cells; Homo sapiens, MIA PaCa-2, 72 h) | pIC50 [2] | pIC50 (MIA PaCa-2 cells) | binding rate [1] |
| --- | --- | --- | --- | --- |
| Cc1nc2cc(-c3cccn4c(C(=O)c5cc(F)c(NC(=O)/C=C/CNC6CC7CCC(C6)O7)c(F)c5)ccc34)c(C(F)(F)F)cc2n1C (stereo not drawn) [Example 79, (E)-4-((8-oxabicyclo[3.2.1]octan-3-yl)amino)-N-(4-(8-(1,2-dimethyl-6-(trifluoromethyl)-1H-benzo[d]imidazol-5-yl)indolizine-3-carbonyl)-2,6-difluorophenyl)but-2-enamide] | 6.96 | 7.21 |  | A (A binding rate of 80% or more is rated “A”) |
| CO[C@H]1CC[C@H](NC/C=C/C(=O)Nc2c(F)cc(C(=O)c3cc(C(N)=O)c4c(-c5c(C)cc6c(nc(C)n6C)c5Cl)cccn34)cc2F)CC1 [Example 107, 8-(4-chloro-1,2,6-trimethyl-1H-benzo[d]imidazol-5-yl)-3-(3,5-difluoro-4-((E)-4-(((1r,4r)-4-methoxycyclohexyl)amino)but-2-enamido)benzoyl)indolizine-1-carboxamide] | 6.24 | 7.42 |  | A (A binding rate of 80% or more is rated “A”) |
| C#Cc1cc(C(=O)c2cc(F)c(NC(=O)/C=C/CN[C@H]3CC[C@H](OC)CC3)c(F)c2)n2cccc(-c3c(C)cc4c(nc(C)n4C)c3Cl)c12 [Example 100] | 7.02 | 7.15 |  | A (A binding rate of 80% or more is rated “A”) |
| COc1cc2c(ncn2C)c(Cl)c1-c1cccn2c(C(=O)c3cc(F)c(NC(=O)/C=C/CN[C@H]4CC[C@H](OC)CC4)c(F)c3)ccc12 (single isomer, unassigned) [Example 41-2, (E)-N-(4-(8-(4-chloro-6-methoxy-1-methyl-1H-benzo[d]imidazol-5-yl)indolizine-3-carbonyl)-2,6-difluorophenyl)-4-(((1r,4r)-4-methoxycyclohexyl)amino)but-2-enamide] |  | 7.13 | 7.30 | A (A binding rate of 80% or more is rated “A”) |
| Cc1nc2c(Cl)c(-c3cccn4c(C(=O)c5cc(F)c(NC(=O)/C=C/CNC(C)(C)C)c(F)c5)ccc34)c(C(F)(F)F)cc2n1C (single isomer, unassigned) [Example 56-1, (E)-4-(tert-butylamino)-N-(4-(8-(4-chloro-1,2-dimethyl-6-(trifluoromethyl)-1H-benzo[d]imidazol-5-yl)indolizine-3-carbonyl)-2,6-difluorophenyl)but-2-enamide] |  | 6.35 | 5.96 | A (A binding rate of 80% or more is rated “A”) |
| Cc1nc2cc(-c3cccn4c(C(=O)c5cc(F)c(NC(=O)/C=C/CNC6CCCCC6O)c(F)c5)ccc34)c(C(F)(F)F)cc2n1C (stereo not drawn) [Example 63, (E)-N-(4-(8-(1,2-dimethyl-6-(trifluoromethyl)-1H-benzo[d]imidazol-5-yl)indolizine-3-carbonyl)-2,6-difluorophenyl)-4-((2-hydroxycyclohexyl)amino)but-2-enamide] | 6.40 | 7.15 |  | A (A binding rate of 80% or more is rated “A”) |
| CO[C@H]1CC[C@H](NC/C=C/C(=O)Nc2c(F)cc(C(=O)c3ccc4c(-c5c(C(F)(F)F)cc6c(nc(CF)n6C)c5Cl)cccn34)cc2F)CC1 [Example 68] | 7.17 | 7.11 |  | A (A binding rate of 80% or more is rated “A”) |
| COc1cc2c(cc1-c1cccn3c(C(=O)c4cc(F)c(NC(=O)/C=C/CN[C@H]5CC[C@H](OC)CC5)c(F)c4)ccc13)ncn2C [Example 1, (E)-N-(2,6-difluoro-4-(8-(6-methoxy-1-methyl-1H-benzo[d]imidazol-5-yl)indolizine-3-carbonyl)phenyl)-4-(((1r,4r)-4-methoxycyclohexyl)amino)but-2-enamide] | 7.04 | 7.24 |  | A (A binding rate of 80% or more is rated “A”) |
| Cc1nc2cc(-c3cccn4c(C(=O)c5cc(F)c(NC(=O)/C=C/CNC6CCOC6)c(F)c5)ccc34)c(C(F)(F)F)cc2n1C (stereo not drawn) [Example 77, (E)-N-(4-(8-(1,2-dimethyl-6-(trifluoromethyl)-1H-benzo[d]imidazol-5-yl)indolizine-3-carbonyl)-2,6-difluorophenyl)-4-((tetrahydrofuran-3-yl)amino)but-2-enamide] | 7.15 | 7.38 |  | A (A binding rate of 80% or more is rated “A”) |
| COCc1nc2c(Cl)c(-c3cccn4c(C(=O)c5cc(F)c(NC(=O)/C=C/CNC(C)(C)C)c(F)c5)ccc34)c(C)cc2n1C [Example 86, (E)-4-(tert-butylamino)-N-(4-(8-(4-chloro-2-(methoxymethyl)-1,6-dimethyl-1H-benzo[d]imidazol-5-yl)indolizine-3-carbonyl)-2,6-difluorophenyl)but-2-enamide] | 7.09 | 7.40 |  | A (A binding rate of 80% or more is rated “A”) |
| CO[C@H]1CC[C@H](NC/C=C/C(=O)Nc2c(F)cc(C(=O)c3ccc4c(-c5cc6ncn(C)c6cc5O)cccn34)cc2F)CC1 [Example 23, (E)-N-(2,6-difluoro-4-(8-(6-hydroxy-1-methyl-1H-benzo[d]imidazol-5-yl)indolizine-3-carbonyl)phenyl)-4-(((1r,4r)-4-methoxycyclohexyl)amino)but-2-enamide] | 6.28 | 7.64 |  | A (A binding rate of 80% or more is rated “A”) |
